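Five compound concentrations were applied to cells in 96-well plates for 48 hours; endpoints were derived by simple linear interpolation of the resulting dose-response curve. GI50 is the concentration that inhibits growth by half. TGI marks complete inhibition of growth.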
Tests used:
Assay in all cases: DTP human tumour cell line panel, 48 h
MCF7 breast = system: MCF7 breast
SR leukemia = system: SR leukemia
MALME-3M melanoma = system: MALME-3M melanoma
SNB-75 CNS = system: SNB-75 CNS
OVCAR-5 ovarian = system: OVCAR-5 ovarian
HS 578T breast = system: HS 578T breast
OVCAR-3 ovarian = system: OVCAR-3 ovarian
PC-3 prostate = system: PC-3 prostate
RPMI-8226 leukemia = system: RPMI-8226 leukemia
HCT-15 colon = system: HCT-15 colon

Row | Structure (SMILES) | TGI (MCF7 breast) | TGI (SR leukemia) | TGI (MALME-3M melanoma) | TGI (SNB-75 CNS) | TGI (OVCAR-5 ovarian) | TGI (HS 578T breast) | TGI (OVCAR-3 ovarian) | TGI (PC-3 prostate) | TGI (RPMI-8226 leukemia) | TGI (HCT-15 colon) | GI50 (MCF7 breast) | GI50 (MALME-3M melanoma) | GI50 (OVCAR-5 ovarian) | GI50 (OVCAR-3 ovarian) | GI50 (RPMI-8226 leukemia) | GI50 (HCT-15 colon) | GI50 (SNB-75 CNS) | GI50 (HS 578T breast) | GI50 (PC-3 prostate)
1 | COc1ccc2cc(/C=N/NC(=O)Nc3ccccc3)ccc2c1 | > 100 µM | > 100 µM | > 100 µM | > 100 µM | > 100 µM | > 100 µM | > 100 µM | > 100 µM | > 100 µM | > 100 µM |  |  |  |  |  |  |  |  | 
2 | CC(OC(C)(C)C)[C@H](NC(=O)OCC(Cl)(Cl)Cl)C(=O)O (stereo not given in full) |  | > 100 µM | > 100 µM | > 100 µM | > 100 µM |  | > 100 µM |  | > 100 µM | > 100 µM |  |  |  |  |  |  |  |  | 
3 | O=c1cnn(C/C=C/CO)c(=O)[nH]1 | > 100 µM | > 100 µM | > 100 µM | > 100 µM | > 100 µM | > 100 µM | > 100 µM | > 100 µM | > 100 µM | > 100 µM |  |  |  |  |  |  |  |  | 
4 | Cc1[nH]nc(C(F)(F)F)c1N=NN1CCOCC1 | 21 µM | 2.77 µM | 31.3 µM | 26.7 µM | 41.7 µM | 40.5 µM | 23 µM | 24.8 µM | 5.06 µM | 25.8 µM |  |  |  |  |  |  |  |  | 
5 | O=C(O)CCC(NC(=O)c1ccc(Nc2nc3cc(C(F)(F)F)ccc3nc2-c2ccccc2)cc1)C(=O)O (stereo not given) | > 100 µM |  | > 100 µM | > 100 µM | > 100 µM |  | > 100 µM |  | > 100 µM | > 100 µM |  |  |  |  |  |  |  |  | 
6 | CC1(CCOCc2ccccc2)NC(=O)NC1=O (stereo not given) |  | > 100 µM | > 100 µM |  | > 100 µM | > 100 µM | > 100 µM | > 100 µM |  | > 100 µM |  |  |  |  |  |  |  |  | 
7 | CCC(/C=C/C1OC(=O)C=CC1C)=C\C(C)C/C=C/C(C)=C/C(C)C(=O)C(C)C(O)C(C)C/C(C)=C/C(=O)O (stereo not given) |  | 2.28e-05 µM | 6.29 µM | 7.17 µM | 15.5 µM | 0.000594 µM |  |  |  |  | < 1 pM | 0.000217 µM | < 0.001 nM | 0.0145 nM | 3.11 pM | 1.72e-06 µM |  |  | 
8 | C=C(C)[C@@H]1CC[C@]2(C(=O)NC3CCCCC3)CC[C@]3(C)[C@H](CC[C@@H]4[C@@]5(C)CCCNC(C)(C)[C@@H]5CC[C@]43C)[C@@H]12 |  |  |  | 3.05 µM |  |  | 3.57 µM |  |  |  |  |  |  | 1870 nM |  |  | 1.48 µM |  | 
9 | c1ccc(CCNc2ccccn2)nc1 | > 100 µM |  | > 100 µM |  | > 100 µM | > 100 µM | > 100 µM | > 100 µM |  | > 100 µM |  |  |  |  |  |  |  |  | 
10 | CC1(C)N=C(N)N=C(N)N1c1ccc(CCc2ccccc2)cc1 | > 76.7 µM |  | > 80.2 µM | > 94.3 µM | > 88.2 µM |  | > 80.6 µM |  | > 100 µM | > 100 µM |  |  |  |  |  |  |  |  | 
11 | O=C(Cn1c[n+](CC(=O)c2ccc(-c3ccccc3)cc2)c2ccccc21)Nc1cccc2cccnc12 |  |  |  | 4.03 µM | 2.84 µM | 4.3 µM |  | 2.29 µM |  | 30.9 µM |  |  | 1500 nM |  |  | 9.63 µM | 1.65 µM | 1.7 µM | 1.03 µM
12 | NCc1ccccc1-c1c2nc(c(-c3ccccc3CN)c3ccc([nH]3)c(-c3ccccc3CN)c3nc(c(-c4ccccc4CN)c4ccc1[nH]4)C=C3)C=C2 |  |  |  | 24.7 µM | 33.8 µM |  | 39.2 µM |  | 32.3 µM | 49.4 µM |  |  |  |  |  |  |  |  | 

Reference: PubChem BioAssay (NCI)
